Structures can show the parent of a compound that is named as a salt.
Legend:
ICR mice [1] = assay: Measurement of respiration (whole body plethysmography); format: in vivo
Description: A whole body plethysmography (DSI, US) was used to measure respiration in freely moving ICR mice (half male and half female) as described previously ([Manglik et al., 2016]; [Hill et al., 2018a]; [Hill et al., 2018b]) with some modifications. The respiratory frequency was recorded and then averaged for over 5-min period. The baseline values were recorded for 10 min before dosing. The mice were then removed from the chambers and given drugs, and respiration was then measured for 45 min.

mice = assay: Locomotor activity test (sedation)
ICR mice [2] = assay: Acetic acid-induced writhing test; format: in vivo; conditions: 10 mg/kg s.c., 24 h post-dosing
Description: ICR mice (half male and half female) were used in this assay. […] A writhe was defined as a wave of contraction of the abdominal musculature followed by extension of the hind limbs ([Wang et al., 2018]). The percentage inhibition of writhes was calculated by the following formula: % antinociception = (Nv−Nt)/Nv × 100, where Nv is the number of writhes in vehicle group and Nt is the number of writhes in treatment groups.

C57BL/6J mice = assay: Hot-plate test; format: in vivo; conditions: 10 mg/kg
Description: The hot-plate test was performed according to previous reports ([DeWire et al., 2013]; [Hill et al., 2018a]; [Wang et al., 2018]). Female C57BL/6J mice were individually placed on a hot plate at 56°C and the latency to licking or jumping was then recorded. A cut-off time of 30 s was imposed in order to prevent tissue damage. Before drug administration, the latency of each mouse was measured and defined as the pre-drug value. The animals with a pre-drug value of greater than 20 s were excluded.

SD rats [3] = assay: Hindpaw incision model (mechanical allodynia, von Frey); format: in vivo; conditions: 10 mg/kg
Description: The surgery was conducted as reported previously ([Brennan et al., 1996]; [Whiteside et al., 2004]; [Biddlestone et al., 2007]). Male SD rats were anesthetized with isoflurane inhalation (3–5%) and the plantar surface of the left hindpaw was sterilized using iodophor solution. A 1-cm longitudinal incision was made on the plantar surface with no. Eleven scalpel blade, starting at 0.5 cm from the heel and extending toward the toes. The deep fascia was cut to expose the flexor digitorum brevis muscle. The muscle was elevated with curved forceps and incised longitudinally with the tip of a scalpel blade without disturbing the origin and insertion. […] The responses to mechanical stimulation of the hindpaws were recorded at 2 h post-surgery and the mechanical pain thresholds were defined as pre-dose values. After dividing into different groups according to the pre-dose values, the animals were administered vehicle (normal saline) or test compounds and the mechanical pain thresholds were measured at 15 min and 24 h post-dose.
(§1) The rats were placed individually in Plexiglas chambers on a metallic mesh floor and allowed to acclimatize for 30–60 min ([Tsuda et al., 2011]). Mechanical allodynia was determined by probing the plantar surface of the hindpaw from below the mesh floor with a series of calibrated von Frey filaments (Stoelting) in log increments of force ([Lai et al., 2006]). […]

SD rats [4] = assay: Chronic constriction injury (CCI) model (mechanical allodynia, von Frey); format: in vivo; conditions: 10 mg/kg
Description: The CCI surgery was performed as described previously with slight modifications ([Bennett and Xie, 1988]). Male SD rats were used in the CCI model. After isoflurane inhalation anesthesia, the femoral skin of the left hindlimb was incised and the sciatic nerve was exposed by blunt dissection of the biceps femoris muscle with a pair of forceps ([Chen et al., 2018]). A 2 mm-long polyethylene cuff was successively implanted around the nerve and the incision was then closed with skin stapler ([Bailey and Ribeiro-da-Silva, 2006]; [Balasubramanyan et al., 2006]). Animals were returned to their cages after recovering from anesthesia. Seventeen days after the surgery, the responses to mechanical stimulation of the hindpaws were measured before the compounds were administered. The rats were then divided into different groups according to the pre-administration values. After the animals were given vehicle or test compounds, the mechanical pain thresholds were taken at multiple time points.
as §1

ICR mice [5] = assay: Compound 48/80-induced scratching test; format: in vivo; conditions: 0.02 mg/kg
Description: After acclimatization for 30–60 min in Plexiglas chambers, the male ICR mice were given vehicle or test compounds. Compound 48/80 (50 μg, 0.1 ml) was subcutaneously injected into the back of the neck at 15 min after drug administration ([Salaga et al., 2015]). The mice were immediately placed back into the chambers and the scratching behaviors were recorded for 30 min ([Kobayashi et al., 2003]; [Inan et al., 2009]; [Hachisuka et al., 2010]). One bout of scratching was defined as the mouse lifting its hindpaw towards the injection site to scratch until it either licked or bite the hindpaw or placed it back down on the floor ([Nojima and Carstens, 2003]). The percentage inhibition of scratching was calculated by the following formula: % antipruritis = (Bv−Bt)/Bv × 100, where Bv is the bouts of scratching in vehicle group and Bt is the bouts of scratching in treatment groups.

With CC(C)C[C@@H](NC(=O)[C@@H](Cc1ccccc1)NC(=O)[C@H](N)Cc1ccccc1)C(=O)N[C@H](CCCCN)C(=O)N1CCC(N)(C(=O)O)CC1 [CR845] the “effect on respiratory rate” value (ICR mice [1]; 2 mg/kg) was “significant decrease”, the “time post-administration at which respiratory rate was significantly decreased” value (ICR mice [1]; 2 mg/kg) was 25 min and the “time post-drug at which effects on respiratory rate reached a peak” value (ICR mice [1]; 2 mg/kg) was 45 min. The “effect on locomotor activity / total distance traveled” value (mice; 0.4 mg/kg, 15 min post-dosing) was “obvious decrease”.
With CN1CC[C@]23c4c5ccc(O)c4O[C@H]2[C@@H](O)C=C[C@H]3[C@H]1C5 [morphine, morphine sulfate] the “efficacy in writhing test” value (ICR mice [2]) was “vanished”, the “central antinociceptive effect in hot-plate test” value (C57BL/6J mice) was “almost complete efficacy” and the “effect on hindpaw incision-induced mechanical allodynia” value (SD rats [3]; 15 min after dosing) was “completely inhibited”. The “effect on pain behaviors” value (SD rats [3]; 24 h post-dosing) was “no any effect”, the “effect on respiratory rate” value (ICR mice [1]; 10 mg/kg) was “significantly reduced” and the “effect on CCI-induced mechanical allodynia” value (SD rats [4]; 15 min after dosing) was “completely inhibited”. For the same compound, the “effect on pain behaviors” value (SD rats [4]; 24 h post-dosing) was “no any effect” and the “effect on distance traveled” value (mice; 10 mg/kg) was “reduced remarkedly”.
With CN(C(=O)/C=C/c1ccoc1)[C@@H]1CC[C@@]2(O)[C@H]3Cc4ccc(O)c5c4[C@@]2(CCN3CC2CC2)[C@H]1O5 [nalfurafine, nalfurafine hydrochloride] the “inhibitory rate on scratching responses” value (ICR mice [5]) was 94.30%.

— paper PMC8635029 (Frontiers in Pharmacology, 2021)
